Read-outs that look alike come from different tables or passages of the source.
Columns and labels:
[1] = molecular target: KRAS G13D (Homo sapiens, UniProt P01116+P62937, G13D); test: Disruption of BRAF RBD interaction with Ras (FRET / MOA assay, with Cyclophilin A); type: biochemical
In short: (§1)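 Cyclophilin A-dependent ternary complex assay. K-Ras loaded with nucleotide; BRAF RBD as effector. Cpd top 30 μM final, 3 h at 25 °C. Readout: TR-FRET ratio, IC50.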

[2] = molecular target: NRAS G12C (Homo sapiens, UniProt P01111+P62937, G12C); test: as above; type: biochemical
NRAS G12C, sequence (P01111 whole entry G12C): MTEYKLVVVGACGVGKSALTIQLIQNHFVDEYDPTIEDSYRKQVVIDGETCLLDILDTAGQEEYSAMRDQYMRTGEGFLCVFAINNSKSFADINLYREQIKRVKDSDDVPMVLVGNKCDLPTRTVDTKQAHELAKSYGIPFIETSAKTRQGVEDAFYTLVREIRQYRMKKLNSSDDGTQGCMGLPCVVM
NRAS G12C, sequence (P62937 whole entry): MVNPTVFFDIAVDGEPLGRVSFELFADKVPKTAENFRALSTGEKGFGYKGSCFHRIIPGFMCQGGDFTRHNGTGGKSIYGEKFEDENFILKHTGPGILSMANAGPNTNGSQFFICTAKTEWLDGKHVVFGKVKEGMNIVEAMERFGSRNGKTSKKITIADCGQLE

[3] = molecular target: KRAS G12D (Homo sapiens, UniProt P01116+P62937, G12D); test: as above; type: biochemical
KRAS G12D, sequence (P01116 1-169 isoform P01116-2 G12D limits assumed): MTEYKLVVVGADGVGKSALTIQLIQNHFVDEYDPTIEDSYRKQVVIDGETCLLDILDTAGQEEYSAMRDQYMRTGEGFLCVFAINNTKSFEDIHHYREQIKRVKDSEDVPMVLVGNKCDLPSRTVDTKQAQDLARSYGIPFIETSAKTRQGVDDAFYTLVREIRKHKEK
KRAS G12D, sequence (P62937 whole entry): as the sequence (P62937 whole entry) above
In short: as §1

[4] = molecular target: KRAS WT (Homo sapiens, UniProt P01116+P62937); test: as above; type: biochemical
KRAS WT, sequence (P01116 1-169 isoform P01116-2 limits assumed): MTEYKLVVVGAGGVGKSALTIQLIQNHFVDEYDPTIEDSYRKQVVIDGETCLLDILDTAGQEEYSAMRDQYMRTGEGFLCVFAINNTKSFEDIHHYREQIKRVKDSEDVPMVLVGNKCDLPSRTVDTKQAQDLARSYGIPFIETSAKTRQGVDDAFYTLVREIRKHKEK
KRAS WT, sequence (P62937 whole entry): as the sequence (P62937 whole entry) above
In short: as §1

[5] = molecular target: KRAS G12S (Homo sapiens, UniProt P01116+P62937, G12S); test: as above; type: biochemical
KRAS G12S, sequence (P01116 1-169 isoform P01116-2 G12S limits assumed): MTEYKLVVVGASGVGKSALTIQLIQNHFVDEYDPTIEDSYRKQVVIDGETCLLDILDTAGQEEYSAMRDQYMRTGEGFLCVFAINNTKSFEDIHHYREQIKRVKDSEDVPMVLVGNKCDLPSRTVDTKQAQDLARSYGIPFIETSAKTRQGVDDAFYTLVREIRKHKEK
KRAS G12S, sequence (P62937 whole entry): as the sequence (P62937 whole entry) above
In short: as §1

[6] = molecular target: KRAS G12C (Homo sapiens, UniProt P01116+P62937, G12C); test: as above; type: biochemical
KRAS G12C, sequence (P01116 1-169 isoform P01116-2 G12C): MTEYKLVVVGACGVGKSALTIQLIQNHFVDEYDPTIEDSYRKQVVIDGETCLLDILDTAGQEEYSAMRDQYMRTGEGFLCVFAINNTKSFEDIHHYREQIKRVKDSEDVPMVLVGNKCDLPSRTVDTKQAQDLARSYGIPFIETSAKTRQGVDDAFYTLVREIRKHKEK
KRAS G12C, sequence (P62937 whole entry): as the sequence (P62937 whole entry) above
In short: as §1

[7] = molecular target: KRAS G12V (Homo sapiens, UniProt P01116+P62937, G12V); test: as above; type: biochemical
KRAS G12V, sequence (P01116 1-169 isoform P01116-2 G12V limits assumed): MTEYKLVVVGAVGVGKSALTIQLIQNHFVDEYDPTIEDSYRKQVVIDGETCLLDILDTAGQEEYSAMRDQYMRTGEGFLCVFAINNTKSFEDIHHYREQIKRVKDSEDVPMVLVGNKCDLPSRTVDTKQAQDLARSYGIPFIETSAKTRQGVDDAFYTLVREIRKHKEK
KRAS G12V, sequence (P62937 whole entry): as the sequence (P62937 whole entry) above
In short: as §1

[8] = molecular target: KRAS G13C (Homo sapiens, UniProt P01116+P62937, G13C); test: as above; type: biochemical
KRAS G13C, sequence (P01116 1-169 isoform P01116-2 G13C): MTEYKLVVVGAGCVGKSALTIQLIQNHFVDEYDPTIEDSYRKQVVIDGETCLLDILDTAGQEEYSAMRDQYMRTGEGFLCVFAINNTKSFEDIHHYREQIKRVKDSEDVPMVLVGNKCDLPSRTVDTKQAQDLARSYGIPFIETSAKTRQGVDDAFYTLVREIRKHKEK
KRAS G13C, sequence (P62937 whole entry): as the sequence (P62937 whole entry) above
In short: as §1

[9] = tested on: Capan-1 (K-Ras G12V); test: CellTiter-Glo cell viability assay, 5-day treatment; type: cell-based; details: Homo sapiens, CAPAN-1, 120 h, 5-day treatment; read-out: Capan-1 Cell Viability assay data (K-Ras G12V, IC50)
In short: (§2)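 Seeded cells received test compound by direct dispensing. On day 5 the plates sat at room temperature approximately 30 minutes, then luminescence was measured. Data were normalized to DMSO and curve-fitted with four parameters.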

[10] = tested on: NCI-H358 (K-Ras G12C); test: as above; type: cell-based; details: Homo sapiens, NCI-H358, 120 h, 5-day treatment; read-out: H358 Cell Viability assay data (K-Ras G12C, IC50)
In short: as §2

[11] = molecular target: NRAS Q61R (Homo sapiens, UniProt P01111+P62937, Q61R); test: Disruption of BRAF RBD interaction with Ras (FRET / MOA assay, with Cyclophilin A); type: biochemical; details: NRAS Q61R; read-out: NRAS Q61R FRET data IC50
NRAS Q61R, sequence (P01111 whole entry Q61R): as the sequence (P01111 whole entry G12C) above, with C12G, Q61R counted along it
NRAS Q61R, sequence (P62937 whole entry): as the sequence (P62937 whole entry) above
In short: (§3)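 TR-FRET in 25 mM HEPES pH 7.3, 100 mM NaCl, 5 mM MgCl2, 0.1% BSA: 25 μM Cyclophilin A, 12.5 nM His6-Ras-GMPPNP, 50 nM GST-BRAF RBD with compound (10-point 3-fold series from 30 μM), 3 h at 25° C. Anti-His Eu/anti-GST APC added, 1.5 h more; IC50 from decreased FRET ratio versus DMSO.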

[12] = molecular target: KRAS Q61H (Homo sapiens, UniProt P01116+P62937, Q61H); test: as above; type: biochemical; details: KRAS Q61H; read-out: KRAS Q61H FRET data IC50
KRAS Q61H, sequence (P01116 1-169 isoform P01116-2 Q61H limits assumed): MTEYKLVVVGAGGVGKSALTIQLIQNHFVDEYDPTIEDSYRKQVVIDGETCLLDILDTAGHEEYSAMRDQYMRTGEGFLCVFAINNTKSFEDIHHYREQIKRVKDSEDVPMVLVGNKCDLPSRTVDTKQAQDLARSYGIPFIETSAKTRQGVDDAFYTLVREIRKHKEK
KRAS Q61H, sequence (P62937 whole entry): as the sequence (P62937 whole entry) above
In short: as §3

[13] = molecular target: NRAS Q61K (Homo sapiens, UniProt P01111+P62937, Q61K); test: as above; type: biochemical; details: NRAS Q61K; read-out: NRAS Q61K FRET data IC50
NRAS Q61K, sequence (P01111 whole entry Q61K): as the sequence (P01111 whole entry G12C) above, with C12G, Q61K counted along it
NRAS Q61K, sequence (P62937 whole entry): as the sequence (P62937 whole entry) above
In short: as §3

[14] = molecular target: NRAS WT (Homo sapiens, UniProt P01111+P62937); test: as above; type: biochemical; details: NRAS WT; read-out: NRAS WT FRET data IC50
NRAS WT, sequence (P01111 whole entry): as the sequence (P01111 whole entry G12C) above, with C12G counted along it
NRAS WT, sequence (P62937 whole entry): as the sequence (P62937 whole entry) above
In short: as §3

[15] = KRAS G13D, read-out: KRAS G13D FRET data IC50
[16] = NRAS G12C, read-out: NRAS G12C FRET data IC50
[17] = read-out: KRAS G12D FRET data, IC50
[18] = KRAS WT, read-out: KRAS WT FRET data IC50
[19] = read-out: KRAS G12S FRET data, IC50
[20] = read-out: KRAS G12C FRET data, IC50
[21] = KRAS G12V, read-out: KRAS G12V FRET data IC50
[22] = read-out: KRAS G13C FRET data, IC50
[23] = KRAS G13D FRET data IC50, KRAS G13D
[24] = NRAS G12C FRET data IC50, NRAS G12C
[25] = KRAS WT FRET data IC50, KRAS WT
[26] = KRAS G12V FRET data IC50, KRAS G12V

KRAS G13D, sequence (P01116 1-169 isoform P01116-2 G13D limits assumed): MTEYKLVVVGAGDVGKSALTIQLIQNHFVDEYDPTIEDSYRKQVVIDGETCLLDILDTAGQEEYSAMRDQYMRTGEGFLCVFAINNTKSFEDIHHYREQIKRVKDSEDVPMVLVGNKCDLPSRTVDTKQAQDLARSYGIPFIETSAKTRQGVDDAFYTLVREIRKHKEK
KRAS G13D, sequence (P62937 whole entry): as the sequence (P62937 whole entry) above

IC50 [1, 15] [µM]	IC50 [2, 16] [µM]	IC50 [3, 17] [µM]	IC50 [4, 18] [µM]	IC50 [5, 19] [µM]	IC50 [6, 20] [µM]	IC50 [7, 21] [µM]	IC50 [8, 22] [µM]	IC50 [11] [µM]	IC50 [12] [µM]	IC50 [13] [µM]	IC50 [14] [µM]	Structure (SMILES)	IC50 [9] [µM]	IC50 [10] [µM]	further results
0.01 to 0.1	0.1 to 1	0.01 to 0.1	0.01 to 0.1	0.01 to 0.1	0.1 to 1	0.1 to 1	0.01 to 0.1	1 to 10	0.01 to 0.1	0.1 to 1	0.01 to 0.1	CCn1c(-c2cccnc2[C@H](C)OC)c2c3cc(ccc31)-c1cc(O)cc(c1)C[C@H](NC(=O)[C@H](C(C)C)N(C)C(=O)C1CN(C)C1)C(=O)N1CCC[C@H](N1)C(=O)OCC(C)(C)C2 (atropisomer, axis not shown) [Example A124]	1 to 10	0.1 to 1	
								1 to 10	0.1 to 1	1 to 10	1 to 10	CCn1c(-c2cnccc2COC)c2c3cc(ccc31)-c1cc(O)cc(c1)C[C@H](NC(=O)[C@H](C(C)C)N(C)S(C)(=O)=O)C(=O)N1CCC[C@H](N1)C(=O)OCC(C)(C)C2 [Example A57, (2S)—N-[(8S,14S)-22-ethyl-4-hydroxy-21-[4-(methoxymethyl)pyridin-3-yl]-18,18-dimethyl-9,15-dioxo-16-oxa-10,22,28-triazapentacyclo[18.5.2.1^2,6.1^10,14.0^23,27]nonacosa-1(26),2,4,6(29),20,23(27),24-heptaen-8-yl]-3-methyl-2-(N-methylmethanesulfonamido)butanamide]		1 to 10	IC50 [1, 23]: 1 to 10 µM; IC50 [2, 24]: 1 to 10 µM; IC50 ([3]; KRAS G12D FRET data, IC50): > 10 µM; IC50 [4, 25]: 1 to 10 µM; IC50 ([5]; KRAS G12S FRET data, IC50): 1 to 10 µM; IC50 ([6]; KRAS G12C FRET data, IC50): 1 to 10 µM; IC50 [7, 26]: 1 to 10 µM; IC50 ([8]; KRAS G13C FRET data, IC50): 1 to 10 µM
1 to 10	0.1 to 1	1 to 10	0.1 to 1	0.1 to 1	0.1 to 1	0.1 to 1	0.1 to 1	1 to 10	0.1 to 1	0.1 to 1	0.1 to 1	CCn1c(-c2cccnc2[C@H](C)OC)c2c3cc(ccc31)-c1csc(n1)C[C@H](NC(=O)[C@@H]1CCCO1)C(=O)N1CCC[C@H](N1)C(=O)OCC(C)(C)C2 [Example A331]	1 to 10		
1 to 10	0.1 to 1	1 to 10	1 to 10	1 to 10	0.1 to 1	0.1 to 1	0.1 to 1	1 to 10	0.1 to 1	0.1 to 1	0.1 to 1	CCn1c(-c2cccnc2[C@H](C)OC)c2c3cc(ccc31)-c1csc(n1)C[C@H](NC(=O)c1ccccn1)C(=O)N1CCC[C@H](N1)C(=O)OCC(C)(C)C2 [Example A366]	1 to 10		
0.1 to 1	0.1 to 1	0.1 to 1	0.1 to 1	0.1 to 1	0.1 to 1	1 to 10	0.1 to 1	0.1 to 1	0.01 to 0.1	0.1 to 1	0.01 to 0.1	CCn1c(-c2cccnc2[C@H](C)OC)c2c3cc(ccc31)-c1csc(n1)C[C@H](NC(=O)[C@H](C(C)C)N(C)C(=O)N1CC[C@]13CCCNC3)C(=O)N1CCC[C@H](N1)C(=O)OCC(C)(C)C2 [Example A434]	1 to 10		
								0.1 to 1	0.1 to 1	0.1 to 1	0.1 to 1	CCn1c(-c2cccnc2[C@H](C)OC)c2c3cc(ccc31)-c1csc(n1)C[C@H](NC(=O)[C@H](C(C)C)N(C)C(=O)N1CC(N)(C#N)C1)C(=O)N1CCC[C@H](N1)C(=O)OCC(C)(C)C2 [Example A456]	1 to 10		IC50 [1, 23]: 1 to 10 µM; IC50 [2, 24]: 0.1 to 1 µM; IC50 ([3]; KRAS G12D FRET data, IC50): 1 to 10 µM; IC50 [4, 25]: 0.1 to 1 µM; IC50 ([5]; KRAS G12S FRET data, IC50): 0.1 to 1 µM; IC50 ([6]; KRAS G12C FRET data, IC50): 0.1 to 1 µM; IC50 [7, 26]: 0.1 to 1 µM; IC50 ([8]; KRAS G13C FRET data, IC50): 0.1 to 1 µM

Structure (SMILES)	IC50 [1, 15] [µM]	IC50 [2, 16] [µM]	IC50 [3, 17] [µM]	IC50 [4, 18] [µM]	IC50 [5, 19] [µM]	IC50 [6, 20] [µM]	IC50 [7, 21] [µM]	IC50 [8, 22] [µM]	IC50 [11] [µM]	IC50 [12] [µM]	IC50 [13] [µM]	IC50 [14] [µM]	IC50 [9] [µM]	IC50 [10] [µM]	further results
CCn1c(-c2cccnc2[C@H](C)OC)c2c3cc(ccc31)-c1csc(n1)C[C@H](NC(=O)N1CCC[C@@H]1COC)C(=O)N1CCC[C@H](N1)C(=O)OCC(C)(C)C2 (atropisomer, axis not shown) [Example A266]									0.1 to 1	0.01 to 0.1	0.01 to 0.1	0.1 to 1	0.1 to 1	0.1 to 1	IC50 [1, 23]: 0.1 to 1 µM; IC50 [2, 24]: 0.01 to 0.1 µM; IC50 ([3]; KRAS G12D FRET data, IC50): 0.1 to 1 µM; IC50 [4, 25]: 0.1 to 1 µM; IC50 ([5]; KRAS G12S FRET data, IC50): 0.1 to 1 µM; IC50 ([6]; KRAS G12C FRET data, IC50): 0.01 to 0.1 µM; IC50 [7, 26]: 0.01 to 0.1 µM; IC50 ([8]; KRAS G13C FRET data, IC50): 0.01 to 0.1 µM
CCn1c(-c2cc(N3CCN(C)CC3)cnc2[C@H](C)OC)c2c3cc(ccc31)-c1csc(n1)C[C@H](NC(=O)[C@H](C(C)C)N(C)C(=O)N(C)C)C(=O)N1CCC[C@H](N1)C(=O)OCC(C)(C)C2 (atropisomer, axis not shown) [Example A277, (2S)—N-((6^3S,4S,Z)-1^1-ethyl-1^2-(2-((S)-1-methoxyethyl)-5-(4-methylpiperazin-1-yl)pyridin-3-yl)-10,10-dimethyl-5,7-dioxo-6^1,6^2,6^3,6^4,6^5,6^6-hexahydro-1^1H-8-oxa-2(4,2)-thiazola-1(5,3)-indola-6(1,3)-pyridazinacycloundecaphane-4-yl)-3-methyl-2-(1,3,3-trimethylureido)butanamide]	0.01 to 0.1	0.01 to 0.1	0.1 to 1	0.01 to 0.1	0.01 to 0.1	0.01 to 0.1	0.01 to 0.1	0.01 to 0.1	0.01 to 0.1	0.01 to 0.1	0.01 to 0.1	0.01 to 0.1	< 0.01	< 0.01	
CCn1c(-c2cccnc2[C@H](C)OC)c2c3cc(ccc31)-c1csc(n1)C[C@H](NC(=O)[C@H](C(C)C)N(C)C(=O)N1C[C@@H]3CN(C)C[C@@H]31)C(=O)N1CCC[C@H](N1)C(=O)OCC(C)(C)C2 (atropisomer, axis not shown) [Example A446]	1 to 10	1 to 10	> 10	1 to 10	1 to 10	1 to 10	> 10	1 to 10	> 10	1 to 10	1 to 10	1 to 10	> 10		
CCn1c(-c2cccnc2[C@H](C)OC)c2c3cc(ccc31)-c1csc(n1)C[C@H](NC(=O)[C@H](C(C)C)N1CCC3(CCN(S(C)(=O)=O)C3)C1=O)C(=O)N1CCC[C@H](N1)C(=O)OCC(C)(C)C2 (mixture of isomers) [Example A220]									1 to 10	1 to 10	1 to 10	1 to 10	1 to 10		
CCn1c(-c2cc(N3CCN(C)CC3)cnc2[C@H](C)OC)c2c3cc(ccc31)-c1csc(n1)C[C@H](NC(C)=O)C(=O)N1CCC[C@H](N1)C(=O)OCC(C)(C)C2 [Example A321]	0.1 to 1	0.01 to 0.1	0.1 to 1	0.1 to 1	0.1 to 1	0.01 to 0.1	0.1 to 1	0.1 to 1	0.1 to 1	0.1 to 1	0.1 to 1	0.1 to 1		0.1 to 1	

Reference: patent publication US20230233569A1 (Revolution Medicines, Inc., priority 2020, published 2023)
